Test results published in ChEMBL document CHEMBL1201862, “PubChem BioAssay data set” (2004).
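Tested at 5 concentrations; 48 h exposure; 96-well plates; endpoints linearly interpolated, else capped at highest concentration. Here, GI50 denotes the concentration required for 50% inhibition of growth.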 Active and inactive are the calls of the source. No stated cut-off is given here; in the data, active = GI50 up to about 1.1 µM and inactive = higher.

What was measured:
Test in all cases: DTP human tumour cell line panel, 48 h
Malme-3M = test system: Malme-3M
SW-620 = test system: SW-620
NCI-H23 = test system: NCI-H23
RPMI-8226 = test system: RPMI-8226
786-0 = test system: 786-0
SK-OV-3 = test system: SK-OV-3
UACC-62 = test system: UACC-62
A549 = test system: A549
HCC 2998 = test system: HCC 2998
HCT-15 = test system: HCT-15
UO-31 = test system: UO-31
SN12C = test system: SN12C
LOX IMVI = test system: LOX IMVI
SF-268 = test system: SF-268
IGROV-1 = test system: IGROV-1
MOLT-4 = test system: MOLT-4
U-251 = test system: U-251

Measured: GI50

O=C(c1ccccc1)C(c1ccccc1)C1(O)C(=O)Nc2ccccc21 (centres undefined)
> 100 µM: HCT-15
inactive: Malme-3M > 100 µM | SW-620 > 100 µM | NCI-H23 > 100 µM | RPMI-8226 > 100 µM | 786-0 > 100 µM | SK-OV-3 > 100 µM | UACC-62 > 100 µM | A549 > 100 µM | HCC 2998 > 100 µM | UO-31 44.4 µM | SN12C > 100 µM | LOX IMVI > 100 µM | SF-268 > 100 µM | IGROV-1 > 100 µM | MOLT-4 > 100 µM

O=C(Nc1cccc(NC(=O)c2cc(=O)c3ccccc3o2)n1)c1cc(=O)c2ccccc2o1
inactive: Malme-3M > 100 µM | SW-620 > 100 µM | NCI-H23 20.1 µM | RPMI-8226 23.3 µM | 786-0 > 100 µM | SK-OV-3 > 100 µM | UACC-62 6.75 µM | A549 53.6 µM | HCC 2998 60.1 µM | UO-31 10.4 µM | LOX IMVI 6.1 µM | U-251 66.8 µM | SF-268 13.5 µM | IGROV-1 38.2 µM | MOLT-4 49.4 µM
4.06 µM: HCT-15

CC(C)(CN1CCCCC1)C(=O)/C=C/c1ccccc1
13.1 µM: HCT-15
inactive: Malme-3M 14.6 µM | SW-620 11.6 µM | NCI-H23 15.1 µM | RPMI-8226 14.7 µM | 786-0 13.6 µM | SK-OV-3 21.3 µM | UACC-62 18.9 µM | A549 16.9 µM | HCC 2998 14.7 µM | UO-31 15.2 µM | SN12C 15.4 µM | LOX IMVI 18.8 µM | U-251 21.5 µM | SF-268 13.3 µM | IGROV-1 22.8 µM | MOLT-4 10.3 µM

CC(=O)Nc1ccccc1[S+]([O-])c1ccccc1 (centres undefined)
inactive: Malme-3M > 100 µM | SW-620 > 100 µM | NCI-H23 > 100 µM | RPMI-8226 > 100 µM | 786-0 > 100 µM | SK-OV-3 84.5 µM | UACC-62 > 100 µM | A549 > 100 µM | HCC 2998 > 100 µM | UO-31 > 100 µM | SN12C > 100 µM | LOX IMVI > 100 µM | U-251 > 100 µM | SF-268 > 100 µM | IGROV-1 > 100 µM | MOLT-4 > 100 µM
> 100 µM: HCT-15

Cc1ccc(S(=O)(=O)n2cc(/C=C/C#N)c(/C=C/C#N)c2)cc1
inactive: Malme-3M > 100 µM | SW-620 40 µM | NCI-H23 96.6 µM | RPMI-8226 > 100 µM | 786-0 > 100 µM | SK-OV-3 > 100 µM | UACC-62 48.9 µM | A549 63.8 µM | UO-31 23.4 µM | SN12C > 100 µM | LOX IMVI 56.6 µM | U-251 94.8 µM | SF-268 54 µM | IGROV-1 > 100 µM | MOLT-4 29.3 µM
88.9 µM: HCT-15

O=C(CCc1nnc2s/c(=C\c3ccc([N+](=O)[O-])cc3)c(=O)n12)Nc1ccc(Cl)c(Cl)c1
24.7 µM: HCT-15
inactive: Malme-3M 29.4 µM | SW-620 25.2 µM | NCI-H23 25.8 µM | RPMI-8226 20.6 µM | 786-0 17.9 µM | SK-OV-3 38.5 µM | UACC-62 26.5 µM | A549 40.7 µM | HCC 2998 22.3 µM | UO-31 41.5 µM | SN12C 25.2 µM | LOX IMVI 15.3 µM | U-251 16.6 µM | SF-268 18.5 µM | IGROV-1 24.7 µM | MOLT-4 25.1 µM

CC1=C2CCCC2=C/C(=N/Nc2ccc([N+](=O)[O-])cc2[N+](=O)[O-])CC1
inactive: Malme-3M > 100 µM | SW-620 > 100 µM | NCI-H23 > 100 µM | RPMI-8226 > 100 µM | 786-0 > 100 µM | SK-OV-3 > 100 µM | UACC-62 > 100 µM | A549 > 100 µM | UO-31 > 100 µM | SN12C > 100 µM | LOX IMVI > 100 µM | U-251 > 100 µM | SF-268 > 100 µM | IGROV-1 > 100 µM | MOLT-4 > 100 µM

Cc1nnc2n1N=C(c1ccc(-c3ccc([N+](=O)[O-])cc3)o1)CS2
inactive: Malme-3M > 100 µM | SW-620 > 100 µM | NCI-H23 35.1 µM | RPMI-8226 > 100 µM | 786-0 > 100 µM | SK-OV-3 > 100 µM | UACC-62 > 100 µM | A549 > 100 µM | HCC 2998 > 100 µM | UO-31 > 100 µM | SN12C > 100 µM | LOX IMVI > 100 µM | U-251 > 100 µM | SF-268 > 100 µM | IGROV-1 > 100 µM | MOLT-4 > 100 µM
> 100 µM: HCT-15

O=C(c1ccc2c3c(ccc(C(=O)C(F)(F)F)c13)CC2)C(F)(F)F
58.7 µM: HCT-15
inactive: Malme-3M 52.4 µM | SW-620 > 100 µM | NCI-H23 43.3 µM | 786-0 57.5 µM | SK-OV-3 > 100 µM | UACC-62 79.3 µM | A549 57.1 µM | HCC 2998 > 100 µM | UO-31 43.2 µM | SN12C 92.9 µM | LOX IMVI 55.7 µM | U-251 63.2 µM | SF-268 51.3 µM | IGROV-1 74 µM | MOLT-4 61.4 µM

CN(C)CCNC(=O)c1cccc2c1nc(-c1ccccc1)c1ccccc12
inactive: SW-620 2.4 µM | NCI-H23 6.65 µM | 786-0 3.97 µM | SK-OV-3 6.24 µM | UACC-62 11.9 µM | HCC 2998 3.82 µM | UO-31 1.82 µM | SN12C 3.01 µM | LOX IMVI 1.47 µM | U-251 5 µM | SF-268 5.79 µM | IGROV-1 3.16 µM
active: A549 1.07 µM | MOLT-4 0.323 µM
2.68 µM: HCT-15

COc1ccc(CNc2nc3ccccc3nc2-c2cccs2)cc1OC
34.8 µM: HCT-15
inactive: Malme-3M 45.1 µM | SW-620 93.3 µM | NCI-H23 25.2 µM | RPMI-8226 72.3 µM | 786-0 33.5 µM | A549 16.2 µM | HCC 2998 30.8 µM | UO-31 22.6 µM | SN12C 61.5 µM | U-251 75.5 µM | SF-268 47.4 µM | MOLT-4 12.6 µM

N#C/C1=C(\N)CCSSSC1
27.9 µM: HCT-15
inactive: Malme-3M 34.5 µM | SW-620 44.6 µM | NCI-H23 32.1 µM | RPMI-8226 44.8 µM | 786-0 35.8 µM | SK-OV-3 52.5 µM | A549 45.2 µM | HCC 2998 54.8 µM | UO-31 56.4 µM | SN12C 36.3 µM | LOX IMVI 42.4 µM | U-251 31.4 µM | SF-268 42.9 µM | IGROV-1 29.7 µM | MOLT-4 69.3 µM

Cc1ccc(C(=O)NC(C)C)cc1/N=N/N(C)C
inactive: SW-620 > 100 µM | NCI-H23 > 100 µM | 786-0 > 100 µM | UACC-62 > 100 µM | A549 > 100 µM | HCC 2998 > 100 µM | UO-31 > 100 µM | SN12C > 100 µM | LOX IMVI > 100 µM | U-251 > 100 µM | SF-268 > 100 µM | IGROV-1 > 100 µM
> 100 µM: HCT-15
